Patent publication US8741892B2, “Compounds” (Boehringer Ingelheim International GmbH, priority 2011, dated 2014)

Target: T1, human recombinant mGluR5 (Homo sapiens, UniProt P41594)
T1 construct: expressed in transfected cells; host or cells: HEK 293
Assay: positive modulation of mGluR5, calcium based FLIPR assay
Conditions: HEK 293 cell line expressing human recombinant mGluR5; EC50 of the modulation from peak Ca fluorescence signal after glutamate at approx. 5% basal stimulation
Summary of the method: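 HEK 293 cells expressing human recombinant mGluR5, Calcium-4 dye-loaded in Ringer solution pH 7.4. Compound (1% DMSO final) preincubated 5 min, then glutamate at ~5% of maximal effect added; peak Ca2+ fluorescence gives EC50 by nonlinear regression, normalized to DMSO (100%) and 10 μM CDPPB (200%) controls.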

T1 sequence (P41594 21-1212): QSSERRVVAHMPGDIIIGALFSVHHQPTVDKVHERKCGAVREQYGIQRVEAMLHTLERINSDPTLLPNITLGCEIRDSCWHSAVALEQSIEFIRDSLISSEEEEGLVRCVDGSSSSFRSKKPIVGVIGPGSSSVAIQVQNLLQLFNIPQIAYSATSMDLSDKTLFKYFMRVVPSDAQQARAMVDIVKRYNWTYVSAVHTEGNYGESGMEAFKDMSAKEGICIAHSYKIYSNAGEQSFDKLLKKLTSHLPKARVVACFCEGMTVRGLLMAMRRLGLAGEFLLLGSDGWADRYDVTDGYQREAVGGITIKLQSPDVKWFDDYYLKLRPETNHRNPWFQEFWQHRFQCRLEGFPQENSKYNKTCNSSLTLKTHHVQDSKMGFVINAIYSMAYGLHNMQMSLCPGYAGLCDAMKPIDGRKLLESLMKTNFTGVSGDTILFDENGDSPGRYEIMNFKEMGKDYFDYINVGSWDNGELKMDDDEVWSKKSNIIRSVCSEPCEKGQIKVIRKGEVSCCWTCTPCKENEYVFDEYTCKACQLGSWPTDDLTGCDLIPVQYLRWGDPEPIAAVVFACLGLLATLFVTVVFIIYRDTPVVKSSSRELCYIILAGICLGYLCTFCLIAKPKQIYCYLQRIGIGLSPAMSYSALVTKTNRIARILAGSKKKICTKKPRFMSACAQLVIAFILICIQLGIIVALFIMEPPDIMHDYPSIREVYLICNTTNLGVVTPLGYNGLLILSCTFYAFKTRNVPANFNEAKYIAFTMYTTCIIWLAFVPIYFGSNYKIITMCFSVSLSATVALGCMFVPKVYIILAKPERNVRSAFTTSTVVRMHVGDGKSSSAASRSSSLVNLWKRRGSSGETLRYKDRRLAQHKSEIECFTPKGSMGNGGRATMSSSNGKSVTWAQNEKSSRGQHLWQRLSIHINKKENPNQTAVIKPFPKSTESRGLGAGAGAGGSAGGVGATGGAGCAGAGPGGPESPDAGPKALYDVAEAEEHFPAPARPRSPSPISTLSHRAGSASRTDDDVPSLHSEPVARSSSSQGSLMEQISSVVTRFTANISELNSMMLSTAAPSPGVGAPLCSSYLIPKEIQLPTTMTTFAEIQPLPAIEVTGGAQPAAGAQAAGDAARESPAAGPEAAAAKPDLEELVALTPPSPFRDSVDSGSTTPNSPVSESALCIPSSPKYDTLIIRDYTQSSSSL

SMILES | EC50 [nM]
Cc1csc(N2CCN(C(=O)Cn3nc(-c4ccccc4)cc3-c3ccccc3)CC2)n1 [Example 7.01.003] | 1780
O=C(Cn1nc(-c2ccccc2)cc1-c1ccccc1)N1CCc2c(Cl)cccc2C1 [Example 7.01.039] | 752
COC(=O)c1ccc2c(c1)CCN(C(=O)Cn1nc(-c3ccccc3)cc1-c1ccccc1)CC2 [Example 7.01.030] | 484
COc1cnc(C2CCN(C(=O)Cn3nc(-c4cccc(C)c4)cc3-c3ccccc3)CC2)nc1 [Example 7.02.203] | 178
Nc1ccc2c(c1)CCN(C(=O)Cn1nc(-c3ccccc3)cc1-c1ccccc1)CC2 [Example 7.01.036] | 1320
CCc1cc(-c2ccc(F)c(C)c2)nn1CC(=O)N1CCc2nc(NC(C)=O)sc2CC1 [Example 7.01.069] | 380
Nc1nc2c(s1)CCN(C(=O)Cn1nc(-c3ccccc3)cc1-c1ccccc1)CC2 [Example 7.01.023] | 166
O=C(Cn1nc(-c2ccccc2)cc1-c1ccccc1)N1Cc2nc(-c3ccccc3)sc2C1 [Example 7.01.032] | 710
Cc1nc2c(s1)CN(C(=O)Cn1nc(-c3ccccc3)cc1-c1ccccc1)C2 [Example 7.01.005] | 381
COc1ccc(-c2cc(-c3ccccc3)n(CC(=O)N3CCc4nc(C)sc4CC3)n2)cc1C [Example 7.02.241] | 76
Cc1cc(-c2cc(-c3ccccc3)n(CC(=O)N3CCc4ccc(N)cc4CC3)n2)ccc1F [Example 7.01.095] | 53
Cc1cnc(C2CCN(C(=O)Cn3nc(-c4ccc(F)c(C)c4)cc3-c3ccccc3)CC2)o1 [Example 7.02.098] | 12
Cc1cc(-c2cc(-c3ccccc3)n(CC(=O)N3CCc4ncc(C)n4CC3)n2)ccc1F [Example 7.01.086] | 274
COCCCc1cc(-c2ccc(F)c(C)c2)nn1CC(=O)N1Cc2nc(C)sc2C1 [Example 7.02.105] | 242
Cc1nc2c(s1)CN(C(=O)Cn1nc(-c3cccc(Cl)c3)cc1-c1ccccc1)C2 [Example 7.02.143] | 48
CCCc1cc(-c2ccc(F)c(C)c2)nn1CC(=O)N1CCN(c2nnc(C)o2)CC1 [Example 7.02.209] | 61
O=C(Cn1nc(-c2ccccc2)cc1-c1ccccc1)N1CCN(c2ccccc2F)C(=O)C1 [Example 7.01.014] | 463
Cc1nc(C2CCN(C(=O)Cn3nc(-c4ccccc4)cc3-c3ccccc3)CC2)oc1C [Example 7.02.008] | 997

SMILES | EC50 [nM]
CCc1cc(-c2cccc(C)c2)nn1CC(=O)N1CCc2nc(C)sc2CC1 [Example 7.02.084] | 73
Cc1nc2c(s1)CN(C(=O)Cn1nc(-c3ccc(F)cn3)cc1-c1ccccc1)C2 [Example 7.02.057] | 913
CCc1nnc(C2CCN(C(=O)Cn3nc(-c4ccc(F)c(C)c4)cc3CC)CC2)o1 [Example 7.02.219] | 209
CCCc1cc(-c2ccc(F)c(C)c2)nn1CC(=O)N1Cc2nc(C)sc2C1 [Example 7.02.034] | 42
CC(=O)Nc1nc2c(s1)CCN(C(=O)Cn1nc(-c3ccccc3)cc1-c1ccccc1)CC2 [Example 7.01.021] | 1530
Cc1nc(N2CCN(C(=O)Cn3nc(-c4ccc(OC(F)F)cc4)cc3-c3ccccc3)CC2)no1 [Example 7.02.224] | 2
COc1cccc(C2=CCN(C(=O)Cn3nc(-c4ccc(F)c(C)c4)cc3-c3ccccc3)CC2)c1 [Example 7.02.136] | 141
O=C(Cn1nc(-c2ccccc2)cc1-c1ccccc1)N1CCc2c(F)ccc(F)c2C1 [Example 7.01.024] | 1160
CCc1cc(-c2ccc(F)c(C)c2)nn1CC(=O)N1Cc2nc(C)oc2C1 [Example 7.02.213] | 26
CCc1cc(-c2ccc(F)c(C)c2)nn1CC(=O)N1CCc2ccsc2CC1 [Example 7.01.071] | 233
Cc1nc2c(o1)CN(C(=O)Cn1nc(-c3ccc(F)c(C)c3)cc1C)CC2 [Example 7.01.061] | 163
CCc1nnc(N2CCN(C(=O)Cn3nc(-c4ccc(F)c(C)c4)cc3CC)CC2)o1 [Example 7.02.163] | 122
Cc1nc2c(s1)CCN(C(=O)Cn1nc(-c3ccc(F)c(C)c3)cc1C1CCCCC1)CC2 [Example 7.02.048] | 31
Cc1cnc(C2=CCN(C(=O)Cn3nc(-c4cccc(Cl)c4)cc3-c3ccccc3)CC2)o1 [Example 7.02.142] | 27
Cc1nc(N2CCN(C(=O)Cn3nc(-c4cc(C)c(F)cn4)cc3-c3ccccc3)CC2)no1 [Example 7.02.178] | 69
Cc1nc2c(o1)CN(C(=O)Cn1nc(-c3ccc(C)c(F)c3)cc1-c1ccccc1)C2 [Example 7.02.253] | 41
Cc1nc(-c2cc(-c3ccccc3)n(CC(=O)N3CCc4nc(N)sc4CC3)n2)ccc1F [Example 7.02.171] | 68

More lines, in order of falling EC50, values ahead:

EC50 [nM] | SMILES
1950 | COc1cc2c(cc1OC)CN(C(=O)Cn1nc(-c3ccccc3)cc1-c1ccccc1)CC2 [Example 7.02.006]
1440 | Cc1ccc(NC2CCN(C(=O)Cn3nc(-c4ccccc4)cc3-c3ccccc3)CC2)c(C)c1 [Example 7.01.051]
1430 | O=C(Cn1nc(-c2ccccc2)cc1-c1ccccc1)N1CCC(c2ncc(Cl)cn2)CC1 [Example 7.01.001, 2-(3,5-diphenyl-pyrazol-1-yl)-1-(4-(5-chloro-pyrimidin-2-yl)-1-piperidinyl)-ethanon]
870 | O=C(Cn1nc(-c2ccccc2)cc1-c1ccccc1)N1CCc2cn[nH]c2CC1 [Example 7.01.006]
750 | Nc1nc2c(s1)CCN(C(=O)Cn1nc(-c3ccc(F)cn3)cc1-c1ccccc1)CC2 [Example 7.02.058]
695 | O=C(Cn1nc(-c2ccccc2)cc1-c1ccccc1)N1CCc2cc(C(F)(F)F)ccc2C1 [Example 7.01.010]
326 | CCc1cc(-c2cccc(C#N)c2)nn1CC(=O)N1Cc2nc(C)sc2C1 [Example 7.02.186]
277 | Cc1cc(-c2cc(-c3ccccc3)n(CC(=O)N3CCc4cnc(Nc5ccccc5)nc4CC3)n2)ccc1F [Example 7.01.080]
258 | CCc1cc(-c2cccc(C#N)c2)nn1CC(=O)N1CCc2nc(N)sc2CC1 [Example 7.02.185]
171 | CCc1cc(-c2ccc(C)c(C)c2)nn1CC(=O)N1CCc2nc(N)sc2CC1 [Example 7.02.074]
101 | Cc1nnc(C2CCN(C(=O)Cn3nc(-c4cccc(Cl)c4)cc3-c3ccccc3)CC2)o1 [Example 7.02.139]
54 | CCc1nnc(C2CCN(C(=O)Cn3nc(-c4ccc(F)c(C)c4)cc3-c3ccccc3)CC2)o1 [Example 7.02.218]
40 | O=C(Cn1nc(-c2ccccc2)cc1-c1ccccc1)N1CCN(c2nccs2)CC1 [Example 7.01.043]
40 | CCCc1cc(-c2ccc(F)c(C)c2)nn1CC(=O)N1CC=C(c2cc(OC)ncn2)CC1 [Example 7.02.070]
30 | Cc1nc2c(s1)CCN(C(=O)Cn1nc(-c3ccc(F)c(C)n3)cc1-c1ccccc1)CC2 [Example 7.02.170]
24 | CCc1cc(-c2ccc(F)c(C)c2)nn1CC(=O)N1CCc2nc(C)oc2CC1 [Example 7.02.066]
15 | Cc1nc2c(s1)CCN(C(=O)Cn1nc(-c3cccc(Cl)c3)cc1-c1ccccc1)CC2 [Example 7.02.145]
15 | COc1cc(-c2cc(-c3ccccc3)n(CC(=O)N3CCc4nc(C)sc4CC3)n2)ccc1F [Example 7.02.148]
11 | Cc1nc2c(s1)CCN(C(=O)Cn1nc(-c3ccc(C)c(C)c3)cc1-c1ccccc1)CC2 [Example 7.02.086]
